Reference: patent US7531533B2, “6-Membered heterocyclic compound and use thereof” (Asahi Kasei Pharma Corporation, priority 2005, dated 2009)

Experiments:
human EP3 receptor = target: T1, human EP3 receptor (Homo sapiens, UniProt P43115); assay: [3H]PGE2 receptor binding test, human EP3 receptor expressing HEK293 membrane fraction; conditions: [3H]PGE2 1 nM
T1 construct: expressed in transfected cells
T1 sequence (P43115 1-390): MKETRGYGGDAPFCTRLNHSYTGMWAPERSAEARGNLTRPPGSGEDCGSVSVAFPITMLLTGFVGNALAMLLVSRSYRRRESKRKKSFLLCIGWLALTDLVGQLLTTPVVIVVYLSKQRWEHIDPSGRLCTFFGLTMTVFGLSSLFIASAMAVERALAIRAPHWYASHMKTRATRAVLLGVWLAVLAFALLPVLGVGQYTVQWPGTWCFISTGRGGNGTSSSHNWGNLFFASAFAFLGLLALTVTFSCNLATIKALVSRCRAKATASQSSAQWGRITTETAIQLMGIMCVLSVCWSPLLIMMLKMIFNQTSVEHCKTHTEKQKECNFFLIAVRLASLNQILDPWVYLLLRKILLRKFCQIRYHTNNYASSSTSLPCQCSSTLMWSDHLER
Procedure: (§1) Receptor Binding Test by Using Human EP Receptor Expressing Cells
(§2) In order to evaluate the selectivity for each EP receptor subtype, which is considered to greatly influence on the side reaction of drugs, [^3H]PGE2 binding inhibitory activities of test compounds were measured in HEK293 in which human EP1, human EP2, human EP3, or human EP4 receptor was stably expressed.
(§3) As a result of searching for prostaglandin E receptors using Refseq Database, the gene information of human EP1 (NM_000955), human EP2 (NM_000956), human EP3 (NM_198719), and human EP4 (NM_000958) was obtained. […] After the reaction, the reaction mixture was subjected to suction filtration under reduced pressure so that [^3H]PGE2 binding to the membrane fraction was trapped on Unifilter Plate GF/C (produced by Packard), and binding radioactivity was measured by using a liquid scintillator.
(§4) The Kd value was obtained by Scatchard plot. […] The [^3H]PGE2 binding inhibitory activity of a test compound was measured by adding [^3H]PGE2 (1 nM) and a test compound at various concentrations. […]
(§5) Further, HEK293 in which each of human EP1, human EP2, and human EP3 receptors was stably expressed was established, and a membrane fraction was prepared. […] The ratios of Ki value for human EP4 to Ki values for human EP1, human EP2, and human EP3 were calculated. […]

[1] = test system: dextran sulfate-induced inflammatory intestinal disease model mice; assay: Action in dextran sulfate-induced inflammatory intestinal disease model mice; assay type: in vivo, mouse; conditions: 7% DSS drinking water 10 days; 0.1-100 mg/kg every day for 10 days
Text: Action in Dextran Sulfate-Induced Inflammatory Intestinal Disease Model Mice
8-Week old female C57BL/6J mice were allowed to take 7% dextran sulfate (henceforth abbreviated as “DSS”) solution as drinking water ad libitum for 10 days to prepare inflammatory intestinal disease model. From the start of DSS intake, Example Compound Nos. IAH-H001a, IAH-H010 and IAH-H057 each dissolved in a suitable solvent (20 to 50% PEG 400 or 15% cyclodextrin) in the same manner as in Formulation Example 1 were given at appropriate doses (0.1 mg/kg, 1 mg/kg, 10 mg/kg, or 100 mg/kg) every day for 10 days (henceforth referred to as “medicament-treated groups”). Further, the solvent used for dissolving the compounds of the present invention was solely given to the mice made to take DSS (henceforth referred to as “solvent group”), and the solvent used for dissolving the compounds of the present invention was solely given every day to the mice allowed to take distilled water not containing DSS as drinking water ad libitum (henceforth referred to as “normal group”). The number of mice in each group was 10. After the start of intake of drinking water, body weight and clinical score were measured every other day. […] The mice were sacrificed 10 days after the start of intake of DSS containing water, and weights of the intestinal tracts of the large intestines were measured.

human EP1 receptor = target: T2, human EP1 receptor (Homo sapiens, UniProt P34995); assay: [3H]PGE2 receptor binding test, human EP1 receptor expressing HEK293 membrane fraction; conditions: [3H]PGE2 1 nM
T2 construct: expressed in transfected cells
T2 sequence (P34995 1-402): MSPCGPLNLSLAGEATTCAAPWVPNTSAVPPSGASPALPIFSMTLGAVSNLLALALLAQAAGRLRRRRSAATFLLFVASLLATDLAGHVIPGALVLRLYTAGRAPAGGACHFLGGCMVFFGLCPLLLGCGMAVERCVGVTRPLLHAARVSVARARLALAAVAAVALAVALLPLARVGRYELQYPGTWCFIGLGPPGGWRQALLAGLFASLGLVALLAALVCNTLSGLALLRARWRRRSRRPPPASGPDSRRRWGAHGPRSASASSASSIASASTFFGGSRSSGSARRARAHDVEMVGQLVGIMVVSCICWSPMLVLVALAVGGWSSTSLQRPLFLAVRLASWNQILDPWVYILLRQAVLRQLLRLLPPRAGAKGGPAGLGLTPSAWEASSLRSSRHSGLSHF
Procedure: as §1, §2, §3, §4, §5

crab-eating monkeys = assay: Intraocular pressure lowering action in crab-eating monkeys; assay type: in vivo, crab-eating monkey; conditions: 50 μl instilled, measured over 6 hours, 3 monkeys
Procedure: Intraocular Pressure Lowering Action
Male crab-eating monkeys with a body weight of 5 to 7.5 kg (5- to 10-year old) were used for the experiment. Example Compound Nos. IAH-H001a, IAH-H010, and IAH-H057 were each dissolved at various concentrations in water or physiological saline containing sodium hydroxide in an amount of the same equivalence as each compound. The intraocular pressure was measured immediately before a treatment with a test compound, then 50 μl of a solution containing each test compound was instilled, and the intraocular pressure was measured over time for 6 hours after the instillation. The intraocular pressure was measured under ketamine (5 to 10 mg/kg, intramuscular injection) anesthetization by using a pneumatic applanation tonometer. Each test compound was used in 3 monkeys, and the intraocular pressures before and after the instillation were compared.

human EP2 receptor = target: T3, human EP2 receptor (Homo sapiens, UniProt P43116); assay: [3H]PGE2 receptor binding test, human EP2 receptor expressing HEK293 membrane fraction; conditions: [3H]PGE2 1 nM
T3 construct: expressed in transfected cells
Procedure: as §1, §2, §3, §4, §5

T3 sequence (P43116 whole entry): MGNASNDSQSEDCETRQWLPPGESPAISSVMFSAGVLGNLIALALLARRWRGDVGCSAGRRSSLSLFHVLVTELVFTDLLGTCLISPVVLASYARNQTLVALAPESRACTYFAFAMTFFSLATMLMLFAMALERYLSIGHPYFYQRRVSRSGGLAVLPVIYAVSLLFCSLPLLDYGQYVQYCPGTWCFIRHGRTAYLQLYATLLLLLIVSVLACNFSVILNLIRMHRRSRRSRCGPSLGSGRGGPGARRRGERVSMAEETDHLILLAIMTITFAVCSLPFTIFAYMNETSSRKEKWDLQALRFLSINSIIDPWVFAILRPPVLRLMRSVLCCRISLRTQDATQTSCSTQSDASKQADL

ratio of Ki values human EP3/human EP4 (human EP3 receptor): ≥ 45000
ratio of Ki values human EP1/human EP4 (human EP1 receptor): ≥ 80000
ratio of Ki values human EP2/human EP4 (human EP2 receptor): 15000
Structure (SMILES): O=C(O)c1ccc(CCN2C(=O)CCCN2CCC(O)Cc2cccc(C(F)(F)F)c2)cc1 (stereo not drawn) [IAH-H001a, 4-[2-(2-{3-hydroxy-4-[3-(trifluoromethyl)-phenyl]butyl}-6-oxotetrahydropyridazin-1-yl)ethyl]benzoic acid]
diarrhea score and bloody stool score compared with the solvent group [1]: significantly improved and suppressed
reduction of the large intestine weight compared with the solvent group [1]: significantly suppressed
intraocular pressure after instillation compared with before instillation (crab-eating monkeys): significant intraocular pressure lowering action
